Measured values taken from article PMC7782785, “Outer-membrane-acting peptides and lipid II-targeting antibiotics cooperatively kill Gram-negative pathogens” (Communications Biology, 2021).
Converted amounts (≈) assume the structure as drawn. Where a SMILES comes first, the peptide text is derived from it. Where no end group is shown, it is not given here. [ ]: non-standard residue; d: D form.

Key:
K. pneumoniae LMG 20218 [1] = assay: microbe, parasite or virus in culture
Description: (§1) MIC tests were performed in triplicate by liquid growth inhibition microdilution assays in sterile polypropylene microtiter plates according to the Clinical and Laboratory Standards Institute (CLSI) guideline for bacteria that grow aerobically. Briefly, the indicator strains were first streaked on the appropriate agar plate, and then single colonies were picked and incubated overnight in liquid broth. The final inoculum of bacteria was 5*10^5 CFU/mL prepared in CAMHB (cationic adjusted Mueller–Hinton broth, Sigma-Aldrich) or CAMHB plus 5% of lysed horse blood (TCS Biosciences, Buckingham, UK) in the case of S. pneumoniae. The antimicrobials were 2-fold serially diluted and 50 µL diluted bacterial suspension was added to each well to make the final volume 100 µL. The microtiter plates and the count plates were incubated at 37 °C for 16–20 h without shaking. Growth inhibition was assessed by measuring the OD600 using a microplate reader (Tecan Infinity F200). The lowest concentration of the antimicrobials that inhibits visible growth of the indicator strain is identified as the MIC value.
(§2) The condition for the tests and the analysis of the plates were performed as described above for the MIC tests.

P. aeruginosa LMG 6395 [2] = assay: microbe, parasite or virus in culture
Description: as §1, §2

A. baumannii LMG 01041 [3] = assay: microbe, parasite or virus in culture
Description: as §1, §2

E. coli LMG 15862 [4] = assay: microbe, parasite or virus in culture
Description: as §1, §2

E. aerogenes LMG 02094 [5] = assay: microbe, parasite or virus in culture
Description: as §1, §2

[6] = human plasma (EDTA K2), 3.2 mM peptide, 37 °C, 200 rpm, samples at 1, 3, 6 h; read-out halo size in spot-on-lawn against K. pneumoniae LMG 20218; triplicate
Description: For plasma stability, the peptides were lyophilized and resuspended in plasma or PBS (as a control) at a final concentration of 3.2 mM. After that, the peptides were incubated with shaking (200 rpm) during 6 h at 37 °C. At time 1, 3, and 6 h, 10 µL samples were tested against K. pneumoniae LMG 20218 by a spot-on-lawn test. Reduction in the size of the halo was related to the degradation of the peptide. The test was performed in triplicate.

K. pneumoniae LMG 20218 [7] = details: LMG 20218
Description: (§3) For the synergy test, standard checkerboard broth microdilution assays were conducted to test the synergistic effect of combined antimicrobials using the same condition as before[51],[56]. […] The initial concentration of both peptides was their individual MIC. 50 µL fresh bacterial suspension prepared as above was added to the wells already containing the antimicrobial compound mixture to achieve 100 µL final volume per well.
(§4) The fractional inhibitory concentration (FIC) indices[57] were calculated using the formula FICI = FICa + FICb = MICac/MICa + MICbc/MICb, to determine whether the combination is additive, synergistic or antagonistic[51],[57]. The MICa and MICb is the MIC of compound A or B alone, respectively. MICac is the MIC of compound A in combination with compound B and MICbc is the MIC of compound B when it was combined with compound A. The FIC corresponds to the MIC of a compound in combination with the other compound, divided by the MIC of the compound alone. FICa is FIC of compound A while FICb is FIC of compound B. The FICI was interpreted according to EUCAST[58] as follows: synergistic, FICI ≤ 0.5; additive,0.5 < FICI ≤ 1; indifferent, 1 < FICI < 2; antagonistic, FICI ≥ 2.
as §2

P. aeruginosa LMG 6395 [8] = test system: P. aeruginosa LMG 6395
Description: as §3, §4, §2

A. baumannii LMG 01041 [9] = test system: A. baumannii LMG 01041
Description: as §3, §4, §2

E. coli LMG 15862 [10] = test system: E. coli LMG 15862
Description: as §3, §4, §2

E. aerogenes LMG 02094 [11] = test system: E. aerogenes LMG 02094
Description: as §3, §4, §2

[12] = test system: all the Gram-negative strains tested; assay: organism not typed
Description: as §1, §2
Hemolytic activity was determined with fresh human red blood cells (hRBCs)[28]. The hRBCs were centrifuged (1000×g, 5 min) and the supernatant was discarded. The pellets were washed three times with PBS and diluted in PBS to make the cell stock solution with a cell density of 2*10^8 cells/mL. […] 1% Triton X-100 and PBS were used as controls. […] The supernatant was transferred to a new 96-well plate and hemolysis was monitored by measuring the absorbance at 450 nm (OD450). Hemolysis levels were calculated as percentage. % hemolysis = 100 × (As−A0)/(At−A0), where As, A0, and At are the absorbance of the hRBCs suspension in PBS with antimicrobial agents (As), without antimicrobial agents (A0), and with 1% Triton X-100 (At). […] For the TI calculation (TI = MHC/GM), other factors as the GM (geometric mean of MIC value of all the Gram-negative strains tested) were calculated.

S. aureus LMG8224 = type: cell-based
Description: as §1

E. faecium LMG16003 = type: cell-based
Description: as §1

E. faecalis V583 = type: cell-based
Description: as §1

HEK-293 cells = assay: Cytotoxicity, cell viability (CellTiter-Glo); details: all the concentrations tested (up to 88 µM)
Description: 96-well plates were seeded with HEK-293 cells at a concentration of 3*10^5 cells/well in 100 µL of DMEM growth medium supplemented with 1% NEAA and 10% FBS. Border wells were filled with 100 µL of sterile PBS. […] ATP levels were measured by adding 50 µL of CellTiter-Glo reagent (Promega, Madison, US) to each well, and luminescence was measured with a SpectraMax i3 microplate reader after 5 minutes of incubation. The potential effect of the tested compounds on cell viability was determined by comparing the signal obtained in the presence of different concentrations of the compounds with those obtained in the control wells. All these tests were performed in triplicate.

S. pneumoniae R6 = assay: MIC, broth microdilution; type: cell-based; details: S. pneumoniae R6 (Gram-positive); compound alone; CAMHB plus 5% lysed horse blood
Description: as §1

[13] = test system: human red blood cells (hRBCs); assay: Hemolytic activity; details: 1 h
Description: Hemolytic activity was determined with fresh human red blood cells (hRBCs)[28]. The hRBCs were centrifuged (1000×g, 5 min) and the supernatant was discarded. The pellets were washed three times with PBS and diluted in PBS to make the cell stock solution with a cell density of 2*10^8 cells/mL. […] 1% Triton X-100 and PBS were used as controls. The cells were incubated at 37 °C for 1 h and centrifuged at 2000 rpm for 5 min. The supernatant was transferred to a new 96-well plate and hemolysis was monitored by measuring the absorbance at 450 nm (OD450). Hemolysis levels were calculated as percentage. % hemolysis = 100 × (As−A0)/(At−A0), where As, A0, and At are the absorbance of the hRBCs suspension in PBS with antimicrobial agents (As), without antimicrobial agents (A0), and with 1% Triton X-100 (At). […] For the TI calculation (TI = MHC/GM), other factors as the GM (geometric mean of MIC value of all the Gram-negative strains tested) were calculated.

[14] = test system: human red blood cells (hRBCs); details: cited from earlier work
[15] = compound alone, CLSI broth microdilution, CAMHB, 5*10^5 CFU/mL, 37 °C, 16–20 h, OD600, triplicate

MIC (K. pneumoniae LMG 20218 [1]; LMG 20218) [µM] | MIC (P. aeruginosa LMG 6395 [2]; LMG 6395) [µM] | MIC (A. baumannii LMG 01041 [3]; LMG 01041) [µM] | MIC (E. coli LMG 15862 [4]; LMG 15862) [µM] | MIC (E. aerogenes LMG 02094 [5]; LMG 02094) [µM] | Compound | further results
24 | 16 | 128 | 12 | 128 | AIVQRIKKWLR-NH2 [L-13] | 
32 | 16 | 128 | 16 | 256 | KIVQRIKKWLR-NH2 [L-12] | 
>256 | 32 | >256 | 24 | >256 | RIKRRIKKWLR-NH2 [L-15] | 
>256 | 16 | >256 | 16 | >256 | RIRKRIKKWLR-NH2 [L-14] | 
64 | 16 | 128 | 32 | >256 | RIVQRIKKWL-NH2 [L-10] | 
>256 | >256 | >256 | 256 | >256 | RIVQRIKKWR-NH2 [L-9] | 

Continued, compound first:

Compound | MIC (K. pneumoniae LMG 20218 [1]; LMG 20218) [µM] | MIC (P. aeruginosa LMG 6395 [2]; LMG 6395) [µM] | MIC (A. baumannii LMG 01041 [3]; LMG 01041) [µM] | MIC (E. coli LMG 15862 [4]; LMG 15862) [µM] | MIC (E. aerogenes LMG 02094 [5]; LMG 02094) [µM] | further results
CC[C@@H](C)[C@@H](NC(=O)[C@@H](CCCCN)NC(=O)[C@@H](CCCCN)NC(=O)[C@@H](Cc1c[nH]c2ccccc12)NC(=O)[C@@H](CC(C)C)NC(=O)[C@H](N)CCCNC(=N)N)C(=O)N[C@H](CCCNC(=N)N)C(=O)N[C@H](CCC(N)=O)C(=O)N[C@@H](C(=O)N[C@@H](C(=O)N[C@H](CCCNC(=N)N)C(N)=O)[C@H](C)CC)C(C)C [D-11R] (H-[dR][dL][dW][dK][dK][dI][dR][dQ][dV][dI][dR]-NH2) | 32 (≈ 47.8 µg/mL) | 16 (≈ 23.9 µg/mL) | 64 (≈ 95.7 µg/mL) | 8 (≈ 12 µg/mL) | 32 (≈ 47.8 µg/mL) | stability in plasma [6]: completely resistant to degradation in plasma; FICI, peptide + nisin (K. pneumoniae LMG 20218 [7]): 0.125; FICI, peptide + nisin (P. aeruginosa LMG 6395 [8]): 0.188; FICI, peptide + nisin (A. baumannii LMG 01041 [9]): 0.188; FICI, peptide + nisin (E. coli LMG 15862 [10]): 0.375; FICI, peptide + nisin (E. aerogenes LMG 02094 [11]): 0.188
CC[C@@H](C)[C@@H](NC(=O)[C@H](N)CCCNC(=N)N)C(=O)N[C@@H](C(=O)N[C@H](CCC(N)=O)C(=O)N[C@H](CCCNC(=N)N)C(=O)N[C@@H](C(=O)N[C@H](CCCCN)C(=O)N[C@H](CCCCN)C(=O)N[C@H](Cc1c[nH]c2ccccc12)C(=O)N[C@H](CC(C)C)C(=O)N[C@H](CCCNC(=N)N)C(N)=O)[C@H](C)CC)C(C)C [D-11] (H-[dR][dI][dV][dQ][dR][dI][dK][dK][dW][dL][dR]-NH2) | 32 (≈ 47.8 µg/mL) | 16 (≈ 23.9 µg/mL) | 8 (≈ 12 µg/mL) | 4 (≈ 5.98 µg/mL) | 32 (≈ 47.8 µg/mL) | GM, MIC geometric mean against all the Gram-negative strains tested [12]: 30.75 µM; MIC (S. aureus LMG8224): > 85 µM; MIC (E. faecium LMG16003): 10.6 µM (≈ 15.8 µg/mL); MIC (E. faecalis V583): 64 µM (≈ 95.7 µg/mL); effect on viability of HEK-293 cells (HEK-293 cells): did not affect the viability; MIC (S. pneumoniae R6): > 85 µM; stability in plasma [6]: completely resistant to degradation in plasma; FICI, peptide + nisin (K. pneumoniae LMG 20218 [7]): 0.078; FICI, peptide + nisin (P. aeruginosa LMG 6395 [8]): 0.156; FICI, peptide + nisin (A. baumannii LMG 01041 [9]): 0.094; FICI, peptide + nisin (E. coli LMG 15862 [10]): 0.375; FICI, peptide + nisin (E. aerogenes LMG 02094 [11]): 0.188; TI, therapeutic index (MHC/GM) [13]: 39.03; MHC, minimal hemolytic concentration that caused 10% hemolysis of hRBCs ([13]; red cells of human): 1200 µM; MHA, mean hemolytic activity ([13]; red cells of human, 50 µM): 0%; MHA, mean hemolytic activity ([13]; red cells of human, 100 µM): 0%; MHA, mean hemolytic activity ([13]; red cells of human, 200 µM): 0%; MHA, mean hemolytic activity ([13]; red cells of human, 400 µM): 0%; MHA, mean hemolytic activity ([13]; red cells of human, 600 µM): 0%
GIGKHVGKALKGLKGLLKGLGEC [L-7] | 12 | 13 | 2 | 6 | 8 | 
GNNRPVYIPQPRPPHPRL [L-1] | 5 | >64 | >64 | 0.5 | 8 | 
KRIVQRIKKWLR-NH2 [L-8] | 64 | 16 | 16 | 4 | 32 | hemolytic activity [14]: very low hemolytic activity
RIVQRIKKWLR-NH2 [L-11] | 32 | 16 | >64 | 12 | 128 | stability in plasma [6]: almost completely degraded within the first 3 h; FICI, peptide + nisin (A. baumannii LMG 01041 [9]): 0.063
RIWVIWRR-NH2 [L-5] | 6 | 3 | 2 | 3 | 5 | 
RLLFRKIRRLKR [L-4] | >256 | >128 | >128 | 64 | >256 | 
RRLFRRILRWL-NH2 [L-6] |  |  |  |  |  | MIC (K. pneumoniae LMG 20218 [1]; [15]): 4 µM; MIC (P. aeruginosa LMG 6395 [2]; [15]): 3 µM; MIC (A. baumannii LMG 01041 [3]; [15]): 2 µM; MIC (E. coli LMG 15862 [4]; [15]): 2 µM; MIC (E. aerogenes LMG 02094 [5]; [15]): 8 µM; hemolytic activity in previous studies [14]: rather high hemolytic activity
VDKGSYLPRPTPPRPIYNRN-NH2 [L-3] | 16 | 32 | 8 | 3 | >32 | 
VDKPPYLPRPRPPRRIYNR [L-2] | 8 | >64 | 16 | 4 | >64 | 
